In PubChem BioAssay AID328 (DTP/NCI, 2004):
Where “and” joins values, the source holds several entries; their conditions need not be identical. Equal entries are not always repeated. Toxic doses and inconclusive results are not listed.

Tests used:
[1] = tested on: BDF1 mice, P388 leukemia ip, median survival T/C; assay: NCI In Vivo Anticancer Drug Screen. Data for tumor model P388 Leukemia (intraperitoneal) in B6D2F1 (BDF1) mice; conditions: endpoint: median survival time, higher = longer survival
In short: (§1)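 Reported as T/C, where T is the survival measurement in dosed animals and C the same measurement in vehicle controls.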

[2] = tested on: BDF1 mice, P388 leukemia ip; assay: as above; conditions: endpoint: mean survival time, schedule: Q01DX009 (ip), higher = longer survival
In short: as §1

Question: For `CN(C)Cc1ccc(C(C)(C)C)cc1`, which T/C ([1]; dose: 6.25 mg/kg/injection, schedule: Q04DX003 (ip), vehicle: water) is on record?
Answer: 98 % of control

Question: And the T/C ([1]; dose: 12.5 mg/kg/injection, schedule: Q04DX003 (ip), vehicle: water)?
Answer: 112 % of control

Question: And the T/C ([1]; dose: 25.0 mg/kg/injection, schedule: Q04DX003 (ip), vehicle: water)?
Answer: 106 % of control

Question: And the T/C ([1]; dose: 50.0 mg/kg/injection, schedule: Q04DX003 (ip), vehicle: water)?
Answer: 106 % of control

Question: And the T/C ([1]; dose: 100.0 mg/kg/injection, schedule: Q04DX003 (ip), vehicle: water)?
Answer: 99 % of control and 100 % of control

Question: What about the T/C ([2]; dose: 3.12 mg/kg/injection, vehicle: water) of the same molecule?
Answer: 108 % of control

Question: What about the T/C ([2]; dose: 6.25 mg/kg/injection, vehicle: water) of the same molecule?
Answer: 100 % of control

Question: What about the T/C ([2]; dose: 12.5 mg/kg/injection, vehicle: water) of the same molecule?
Answer: 102 % of control

Question: What about the T/C ([2]; dose: 25.0 mg/kg/injection, vehicle: water) of the same molecule?
Answer: 96 % of control

Question: And the T/C ([2]; dose: 100.0 mg/kg/injection, vehicle: water)?
Answer: 95 % of control

Question: How did the T/C ([1]; dose: 12.5 mg/kg/injection, schedule: Q04DX003 (ip), vehicle: saline with Tween-80) turn out when `CNC(C)(C)C(SSSC(c1ccc(Cl)cc1)C(C)(C)NC)c1ccc(Cl)cc1` (stereo not drawn) was run?
Answer: 101 % of control

Question: What about the T/C ([1]; dose: 25.0 mg/kg/injection, schedule: Q01DX009 (ip), vehicle: saline with Tween-80) of the same molecule?
Answer: 102 % of control

Question: And the T/C ([1]; dose: 25.0 mg/kg/injection, schedule: Q04DX003 (ip), vehicle: saline with Tween-80)?
Answer: 100 % of control

Question: And the T/C ([1]; dose: 50.0 mg/kg/injection, schedule: Q01DX009 (ip), vehicle: saline with Tween-80)?
Answer: 94 % of control

Question: And the T/C ([1]; dose: 50.0 mg/kg/injection, schedule: Q04DX003 (ip), vehicle: saline with Tween-80)?
Answer: 95 % of control

Question: And the T/C ([2]; dose: 6.25 mg/kg/injection, vehicle: saline with Tween-80)?
Answer: 95 % of control

Question: And the T/C ([2]; dose: 12.5 mg/kg/injection, vehicle: saline with Tween-80)?
Answer: 114 % of control

Question: What about the T/C ([2]; dose: 25.0 mg/kg/injection, vehicle: saline with Tween-80) of the same molecule?
Answer: 103 % of control

Question: `CC[n+]1c(-c2ccccc2)c2cc(N)ccc2c2ccc(N)cc21` was tested. Which T/C ([1]; dose: 1.56 mg/kg/injection, schedule: Q01DX009 (ip), vehicle: saline) did it give?
Answer: 151 % of control

Question: And the T/C ([1]; dose: 3.13 mg/kg/injection, schedule: Q01DX009 (ip), vehicle: saline)?
Answer: 178 % of control

Question: And the T/C ([1]; dose: 5.0 mg/kg/injection, schedule: Q01DX010 (ip), vehicle: saline)?
Answer: 155 % of control

Question: What about the T/C ([1]; dose: 5.3 mg/kg/injection, schedule: Q01DX009 (ip), vehicle: saline) of the same molecule?
Answer: 208 % of control

Question: What about the T/C ([1]; dose: 6.25 mg/kg/injection, schedule: Q01DX009 (ip), vehicle: saline) of the same molecule?
Answer: 163 % of control

Question: What about the T/C ([1]; dose: 6.25 mg/kg/injection, schedule: Q01DX009 (ip), vehicle: water) of the same molecule?
Answer: 163 % of control

Question: And the T/C ([1]; dose: 8.0 mg/kg/injection, schedule: Q01DX009 (ip), vehicle: saline)?
Answer: 198 % of control and 222 % of control

Question: And the T/C ([1]; dose: 12.0 mg/kg/injection, schedule: Q01DX009 (ip), vehicle: saline)?
Answer: 227 % of control and 196 % of control

Question: What about the T/C ([1]; dose: 12.5 mg/kg/injection, schedule: Q01DX009 (ip), vehicle: saline with Tween-80) of the same molecule?
Answer: 113 % of control

Question: What about the T/C ([1]; dose: 12.5 mg/kg/injection, schedule: Q01DX009 (ip), vehicle: water) of the same molecule?
Answer: 113 % of control

Question: What about the T/C ([1]; dose: 20.0 mg/kg/injection, schedule: Q01DX010 (ip), vehicle: saline) of the same molecule?
Answer: 114 % of control and 120 % of control

Question: What about the T/C ([1]; dose: 27.0 mg/kg/injection, schedule: Q01DX009 (ip), vehicle: saline) of the same molecule?
Answer: 97 % of control

Question: For `CC(=O)n1ccnc1/C=C\c1ccc([N+](=O)[O-])s1`, which T/C ([1]; dose: 50.0 mg/kg/injection, schedule: Q04DX003 (ip), vehicle: Klucel (hydroxypropylcellulose) (HPC)) is on record?
Answer: 95 % of control

Question: What about the T/C ([1]; dose: 100.0 mg/kg/injection, schedule: Q04DX003 (ip), vehicle: Klucel (hydroxypropylcellulose) (HPC)) of the same molecule?
Answer: 110 % of control

Question: And the T/C ([1]; dose: 200.0 mg/kg/injection, schedule: Q04DX003 (ip), vehicle: Klucel (hydroxypropylcellulose) (HPC))?
Answer: 105 % of control
